Assays:
Assay in all cases: relative viability (nuclei count vs DMSO), 5 days (fraction); higher = more cells survive
Midostaurin = compound: CO[C@@H]1[C@H](N(C)C(=O)c2ccccc2)C[C@H]2O[C@]1(C)n1c3ccccc3c3c4c(c5c6ccccc6n2c5c31)C(=O)NC4 [Midostaurin]
How it was run: (§1)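 Viability is treated-well nuclei as a fraction of vehicle-well nuclei, reported as the median across plates. Before counting, lung cancer cell lines were kept overnight at 37 °C in 1536-well plates, pinned with five √10-spaced library-drug doses on vehicle-anchored plates, and left 5 days without medium change, then fixed, permeabilised and Hoechst-stained in one step, imaged at 4× and counted by MetaXpress. A plate passed only if control CV was below 25% and at least one doubling occurred.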

[1] = compound: COc1cc(-c2nn([C@H]3CC[C@H](N4CCN(C(C)=O)CC4)CC3)c3ncnc(N)c23)ccc1NC(=O)c1cc2ccccc2n1C
How it was run: as §1

[2] = compound: COc1cc(-c2nn([C@H]3CC[C@H](N4CCN(C(C)=O)CC4)CC3)c3ncnc(N)c23)ccc1NC(=O)c1cc2ccccc2n1C + CC(C)C[C@H](NC(=O)[C@H](Cc1ccccc1)NC(=O)c1cnccn1)B(O)O [Bortezomib] (partner 0.002 µM)
How it was run: (§2)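 Each reported value is a median over duplicate plates. It expresses relative viability: treated-well nuclei count divided by vehicle-well nuclei count. Lung cancer cell lines in 1536-well plates were dosed by pin tool a day after seeding, alone with one drug or with a fixed anchor-drug dose plus five library-drug doses (not always all listed) in √10 steps, and nuclei were counted after 5 days.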

Midostaurin + Pemetrexed = compound: CO[C@@H]1[C@H](N(C)C(=O)c2ccccc2)C[C@H]2O[C@]1(C)n1c3ccccc3c3c4c(c5c6ccccc6n2c5c31)C(=O)NC4 [Midostaurin] + Nc1nc2[nH]cc(CCc3ccc(C(=O)N[C@@H](CCC(=O)O)C(=O)O)cc3)c2c(=O)[nH]1 [Pemetrexed] (partner 0.2 µM)
How it was run: as §2

Midostaurin + Alpelisib = compound: CO[C@@H]1[C@H](N(C)C(=O)c2ccccc2)C[C@H]2O[C@]1(C)n1c3ccccc3c3c4c(c5c6ccccc6n2c5c31)C(=O)NC4 [Midostaurin] + Cc1nc(NC(=O)N2CCC[C@H]2C(N)=O)sc1-c1ccnc(C(C)(C)C(F)(F)F)c1 [Alpelisib] (partner 2 µM)
How it was run: as §2

Cell Line	relative viability (Midostaurin; 0.01 µM)	relative viability (Midostaurin; 0.03162 µM)	relative viability (Midostaurin; 0.1 µM)	relative viability (Midostaurin; 0.3162 µM)	relative viability ([1]; 0.0128 µM)	relative viability ([1]; 0.04048 µM)	relative viability ([1]; 0.128 µM)	relative viability ([1]; 1.28 µM)	relative viability ([2]; first compound 0.0128 µM)	relative viability ([2]; first compound 0.04048 µM)	relative viability ([2]; first compound 0.128 µM)	relative viability ([2]; first compound 1.28 µM)	relative viability (Midostaurin + Pemetrexed; first compound 0.01 µM)	relative viability (Midostaurin + Pemetrexed; first compound 0.03162 µM)	relative viability (Midostaurin + Pemetrexed; first compound 0.1 µM)	relative viability (Midostaurin + Pemetrexed; first compound 0.3162 µM)	relative viability (Midostaurin + Alpelisib; first compound 0.01 µM)	relative viability (Midostaurin + Alpelisib; first compound 0.03162 µM)	relative viability (Midostaurin + Alpelisib; first compound 0.1 µM)	relative viability (Midostaurin + Alpelisib; first compound 0.3162 µM)
NCI-H1975	0.888	0.971	0.878	0.799	0.958	0.972	0.875	0.479	0.401	0.399	0.332	0.199	0.298	0.31	0.271	0.279	0.613	0.628	0.575	0.38
CAL-12T	1.05	0.882	0.921	0.839	1.03	1.03	1.06	0.991	1.11	0.943	0.938	0.972	1.19	1.19	1.28	0.765	1.28	0.765	0.816	1.09
HCC-44	1	0.965	0.996	0.985	1.06	1.13	0.954	1.17	0.993	0.886	0.897	1.27	0.604	0.628	0.657	0.663	0.831	0.837	0.761	0.607
EKVX	0.991	0.886	0.95	1	0.941	1.06	0.987	0.56	1.07	1.1	0.917	0.401	0.514	0.349	0.379	0.404	0.968	0.813	0.814	0.824
NCI-H1651	0.95	1	1.01	1.09	0.97	1.07	0.923	0.968	0.85	0.949	0.939	0.84	0.626	0.53	0.618	0.675	1.17	0.92	0.935	0.902
SW 1573	0.991	1.08	1.05	0.969	0.926	0.922	0.982	0.766	0.956	1.11	0.98	0.8	0.843	0.957	0.849	0.752	0.73	0.721	0.805	0.618
A-427	0.927	0.879	1.03	0.985	1.05	0.837	0.973	0.863	1.04	0.782	0.935	0.96	1.04	0.888	0.94	1.08	1.05	0.996	1.07	0.982
NCI-H2347	1.12	0.97	1.06	1.09	1.01	0.781	1.04	1.08	0.82	1.07	1.15	0.697	0.459	0.416	0.417	0.405	0.995	0.988	0.964	0.992
NCI-H1355	1	0.948	1.09	1.04	1.06	0.981	0.943	0.953	1.4	1.23	1.22	1.15	1.04	1.07	1.14	1.09	0.827	0.788	0.748	0.814
PC-3 [JPC-3]	0.991	0.907	1.07	1.1	1.01	1.09	1.01	1.09	0.94	0.823	0.827	0.819	0.979	1.07	0.962	1.22	1	0.925	1.02	1.04
NCI-H2228	1.02	0.969	1.22	1.18	1.22	1	1.12	0.744	0.945	1.08	0.804	0.559	0.35	0.343	0.313	0.334	0.891	0.762	0.7	0.695
HOP-62	0.88	0.893	1.06	1.1	1.11	0.962	1.03	1.12	0.845	0.883	0.992	0.621	0.332	0.278	0.326	0.41	0.957	0.636	0.913	1.32
HARA	0.98	0.87	0.974	0.932	1.03	0.828	0.879	0.612	1.12	1.16	1.1	0.803	0.225	0.309	0.222	0.239	0.794	0.795	0.724	0.864
NCI-H838	1	0.927	0.801	0.667	0.953	0.995	0.899	0.728	1.18	0.817	0.578	0.628	0.238	0.236	0.208	0.216	1.02	0.772	0.865	0.407
NCI-H1755	0.983	0.983	0.962	0.977	1.12	0.983	0.937	0.938	1.06	0.993	1.03	0.86	0.447	0.469	0.42	0.431	0.921	0.912	0.75	0.694
HCC-78	1.01	0.814	1.03	0.606	1.06	1.06	0.912	0.567	0.547	0.724	0.566	0.43	0.926	0.857	0.946	0.865	0.413	0.305	0.358	0.296
NCI-H322M	1	0.852	1.06	1.34	0.995	0.897	0.909	0.69	1.23	1.52	1.17	1.17	0.692	0.527	0.677	0.677	0.836	0.686	0.882	0.807
NCI-H3122	1.03	0.962	0.95	1.05	1.07	–	0.987	0.76	1.14	–	1.01	0.788	0.201	0.185	0.201	0.19	0.86	0.683	0.924	0.878
COR-L23	0.998	0.946	0.958	0.875	1.06	1.1	0.92	1.08	0.991	1.4	0.873	0.908	0.195	0.205	0.195	0.188	0.737	0.659	0.818	0.497
NCI-H2087	0.972	0.938	0.985	1.26	1.09	–	1.1	1.11	0.855	0.772	0.869	0.991	0.701	0.665	0.66	0.658	1.2	0.978	1.05	1.06
LC-2-ad	0.97	0.936	0.957	0.892	1.09	0.976	0.959	0.958	1.09	1.12	1.06	1.01	0.295	0.281	0.25	0.258	0.82	0.78	0.878	0.654
NCI-H1915	0.951	0.946	0.951	1.03	1.03	0.783	0.957	0.831	1.05	1.03	0.931	0.929	0.46	0.472	0.506	0.477	1.04	1.02	1.06	1.06
NCI-H2023	1.07	0.893	0.922	0.59	1.02	1.13	0.923	0.906	0.977	1.11	0.897	0.905	0.194	0.244	0.227	0.19	0.608	0.563	0.526	0.583
COR-L 105	0.953	0.858	0.828	0.874	0.811	1.09	0.863	0.596	0.73	0.854	0.657	0.386	1.15	0.945	1.11	0.873	1.08	0.823	0.778	1.05
RERF-LC-KJ	1.02	1.01	1.04	1.04	1	0.991	0.94	0.896	1.16	1.21	1.13	1.07	0.477	0.476	0.492	0.463	0.846	1.02	0.924	0.969
LXF-289	1.03	1.01	0.973	1.03	1.11	0.989	1.01	1.06	1.07	0.963	1	1.18	0.891	0.903	0.888	0.896	0.997	1.02	0.952	0.976
PC-14	0.995	0.988	0.963	0.961	1.09	1.13	0.957	1.08	0.9	0.967	0.892	1.06	0.123	0.125	0.118	0.111	0.827	0.896	0.891	0.785
NCI-H650	0.779	0.844	0.922	0.858	1.13	1.25	0.911	1.01	1.17	1.23	0.848	0.867	0.906	0.892	0.99	0.686	1.04	1.07	1.11	0.63
ChaGo-K-1	0.919	1.07	0.932	1.02	1.03	0.98	0.891	0.898	0.922	1.13	0.865	0.973	0.25	0.266	0.256	0.277	–	–	–	–
NCI-H1650	0.915	0.957	0.921	0.937	0.922	1.1	0.941	0.812	0.225	0.179	0.211	0.205	0.315	0.415	0.322	0.3	–	–	–	–
